ChEMBL document CHEMBL1201862, “PubChem BioAssay data set” (2004)
Activity calls are given as the source filed them.

Assays:
Cytochrome P450 2C19 = Cytochrome P450 2C19 (Homo sapiens, UniProt P33261); test: Cytochrome panel assay with activity outcomes. Panel member name: p450-cyp2c19 Compounds with AC50 equal or less than 10 uM are considered active; assay type: functional; details: read-out: AC50
Cytochrome P450 3A4 = Cytochrome P450 3A4 (Homo sapiens, UniProt P08684);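 further: CYP3A4 tested as one member of a cytochrome P450 panel screen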
Chain of Cytochrome P450 3A4 (P08684 whole entry): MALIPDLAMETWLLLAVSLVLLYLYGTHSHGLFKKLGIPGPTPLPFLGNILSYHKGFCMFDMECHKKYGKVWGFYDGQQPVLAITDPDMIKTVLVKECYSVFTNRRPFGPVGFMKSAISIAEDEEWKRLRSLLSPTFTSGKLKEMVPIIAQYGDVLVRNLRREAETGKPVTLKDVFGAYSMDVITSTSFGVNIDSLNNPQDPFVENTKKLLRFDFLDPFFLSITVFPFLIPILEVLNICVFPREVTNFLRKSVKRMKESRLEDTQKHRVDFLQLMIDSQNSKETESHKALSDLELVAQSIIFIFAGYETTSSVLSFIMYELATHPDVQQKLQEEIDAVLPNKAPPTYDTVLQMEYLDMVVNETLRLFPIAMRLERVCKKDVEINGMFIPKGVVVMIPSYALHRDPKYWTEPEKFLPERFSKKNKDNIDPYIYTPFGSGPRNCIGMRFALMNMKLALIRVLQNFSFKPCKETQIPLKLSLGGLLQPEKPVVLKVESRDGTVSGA

Cytochrome P450 2C9 = Cytochrome P450 2C9 (Homo sapiens, UniProt P11712)
Chain of Cytochrome P450 2C9 (P11712 whole entry): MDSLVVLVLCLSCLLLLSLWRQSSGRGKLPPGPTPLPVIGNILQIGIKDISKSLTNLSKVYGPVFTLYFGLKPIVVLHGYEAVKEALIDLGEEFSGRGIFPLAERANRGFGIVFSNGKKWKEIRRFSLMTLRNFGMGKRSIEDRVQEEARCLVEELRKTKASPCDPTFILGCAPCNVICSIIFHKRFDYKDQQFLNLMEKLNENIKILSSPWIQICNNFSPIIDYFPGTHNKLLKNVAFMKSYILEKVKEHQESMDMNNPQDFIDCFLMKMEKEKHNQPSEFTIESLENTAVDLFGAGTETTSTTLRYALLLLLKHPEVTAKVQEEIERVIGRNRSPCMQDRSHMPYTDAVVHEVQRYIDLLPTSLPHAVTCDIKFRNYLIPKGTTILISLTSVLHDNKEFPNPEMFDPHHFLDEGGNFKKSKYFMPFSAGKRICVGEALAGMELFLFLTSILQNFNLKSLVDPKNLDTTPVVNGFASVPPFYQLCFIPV

[1] = viability of uninfected HEp-2 cells – cell-based, HTS, cytotoxicity control for RSV inhibitor project, dose response (AID 2410); assay type: functional; details: human respiratory syncytial virus
cells [2] = assay type: functional, cell-based
cells [3] = assay type: functional, cell-based; remark: listed apart in the source
Cytochrome P450 1A2 = target: T1, Cytochrome P450 1A2 (Homo sapiens, UniProt P05177);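 further: PubChem cytochrome P450 panel assay, CYP1A2 panel member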
T1 sequence (P05177 whole entry): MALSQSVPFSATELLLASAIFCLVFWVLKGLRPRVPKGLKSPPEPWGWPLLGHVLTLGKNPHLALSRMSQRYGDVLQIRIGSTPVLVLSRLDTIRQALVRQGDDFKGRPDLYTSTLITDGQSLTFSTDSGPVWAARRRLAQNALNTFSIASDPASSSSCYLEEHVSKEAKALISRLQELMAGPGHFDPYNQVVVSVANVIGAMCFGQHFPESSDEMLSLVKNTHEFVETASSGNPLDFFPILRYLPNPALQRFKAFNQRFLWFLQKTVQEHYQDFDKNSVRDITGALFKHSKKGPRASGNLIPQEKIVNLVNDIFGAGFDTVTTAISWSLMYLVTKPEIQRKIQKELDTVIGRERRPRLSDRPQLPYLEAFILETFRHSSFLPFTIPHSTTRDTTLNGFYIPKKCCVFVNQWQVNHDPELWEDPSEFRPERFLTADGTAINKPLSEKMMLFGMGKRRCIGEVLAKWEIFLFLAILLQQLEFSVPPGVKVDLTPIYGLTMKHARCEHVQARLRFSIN

INS1 = test: INS-1E survival protection against cytokine death – cell-based, luminescence, retest, dose response (AID 449756); assay type: functional; details: Rattus norvegicus;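 further: cell death triggered by IL-1 beta plus TNF-alpha plus IFN-gamma mixture; protective hits raise ATP signal compared with cytokine alone wells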
Streptococcus = test: GAS UMAA2166 growth inhibition – luminescence, BacTiterGlo, counter-screen for streptokinase expression inhibitor project, dose response (AID 1915); assay type: functional, organism-based;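 further: potency for reduction of bacterial viability or growth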
[4] = test system: Streptococcus sp. 'group A'; test: Streptococcus pyogenes SK(-)GAS viability under kanamycin – luminescence, BacTiterGlo, confirmation, counter-screen for streptokinase expression inhibitor project, dose response (AID 1900); assay type: functional, organism-based
Streptokinase A = target: T2, Streptokinase A (Streptococcus pyogenes serotype M1, UniProt P10520); test: viability-normalized secreted streptokinase activity reduction – plasminogen activation absorbance, OD405, dose response (AID 1914); assay type: functional, Streptococcus pyogenes M1 GAS;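 further: secreted streptokinase activity via plasminogen activation per viability signal from cell pellet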
T2 sequence (P10520 whole entry): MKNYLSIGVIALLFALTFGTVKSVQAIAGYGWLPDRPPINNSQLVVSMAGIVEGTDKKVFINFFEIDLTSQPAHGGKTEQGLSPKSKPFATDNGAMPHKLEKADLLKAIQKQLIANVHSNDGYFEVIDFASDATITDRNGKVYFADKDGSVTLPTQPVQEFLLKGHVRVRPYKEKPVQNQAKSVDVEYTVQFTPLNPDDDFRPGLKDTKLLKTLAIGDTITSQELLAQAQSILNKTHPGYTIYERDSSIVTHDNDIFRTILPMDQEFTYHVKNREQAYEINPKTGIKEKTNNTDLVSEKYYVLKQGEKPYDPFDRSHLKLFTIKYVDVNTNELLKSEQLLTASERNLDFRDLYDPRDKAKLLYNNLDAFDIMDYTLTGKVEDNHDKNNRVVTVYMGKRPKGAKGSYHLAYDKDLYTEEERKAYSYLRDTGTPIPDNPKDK

Protein RecA = target: T3, Protein RecA (Mycobacterium tuberculosis, UniProt P9WHJ3); test: Fluorescence Cell-Free Homogeneous Dose Retest to Identify Inhibitors of RecA-Intein Splicing Activity. [Related pubchem assays (depositor defined):AID2097, AID2223, AID489010, AID492950]; assay type: functional
T3 sequence (P9WHJ3 whole entry): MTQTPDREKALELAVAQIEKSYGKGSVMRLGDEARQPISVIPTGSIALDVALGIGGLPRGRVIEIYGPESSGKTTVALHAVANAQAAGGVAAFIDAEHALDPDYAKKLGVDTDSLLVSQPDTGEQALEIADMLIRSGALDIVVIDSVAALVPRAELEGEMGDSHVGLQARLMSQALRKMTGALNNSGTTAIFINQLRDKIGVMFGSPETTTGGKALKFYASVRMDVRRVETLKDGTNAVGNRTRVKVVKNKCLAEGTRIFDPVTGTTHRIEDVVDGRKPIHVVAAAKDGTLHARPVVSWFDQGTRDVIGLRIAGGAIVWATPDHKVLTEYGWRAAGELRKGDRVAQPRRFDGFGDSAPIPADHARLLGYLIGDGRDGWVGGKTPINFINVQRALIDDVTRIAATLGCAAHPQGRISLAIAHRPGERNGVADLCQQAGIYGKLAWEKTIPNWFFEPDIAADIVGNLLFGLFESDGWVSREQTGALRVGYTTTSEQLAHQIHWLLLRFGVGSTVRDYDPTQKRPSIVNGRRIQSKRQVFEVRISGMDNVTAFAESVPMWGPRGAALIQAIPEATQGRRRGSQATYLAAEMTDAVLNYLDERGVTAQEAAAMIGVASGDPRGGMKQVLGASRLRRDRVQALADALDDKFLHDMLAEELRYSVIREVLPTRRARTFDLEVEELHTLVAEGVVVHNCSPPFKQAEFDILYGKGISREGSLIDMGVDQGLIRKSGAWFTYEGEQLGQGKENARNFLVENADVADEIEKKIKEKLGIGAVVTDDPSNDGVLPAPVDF

[5] = target: T4, Replicative DNA helicase DnaB (Mycobacterium tuberculosis, UniProt P9WMR3); test: DnaB intein splicing inhibitors, dose response, biochemical, cell-free fluorescence (AID 449749); assay type: functional
T4 sequence (P9WMR3 whole entry): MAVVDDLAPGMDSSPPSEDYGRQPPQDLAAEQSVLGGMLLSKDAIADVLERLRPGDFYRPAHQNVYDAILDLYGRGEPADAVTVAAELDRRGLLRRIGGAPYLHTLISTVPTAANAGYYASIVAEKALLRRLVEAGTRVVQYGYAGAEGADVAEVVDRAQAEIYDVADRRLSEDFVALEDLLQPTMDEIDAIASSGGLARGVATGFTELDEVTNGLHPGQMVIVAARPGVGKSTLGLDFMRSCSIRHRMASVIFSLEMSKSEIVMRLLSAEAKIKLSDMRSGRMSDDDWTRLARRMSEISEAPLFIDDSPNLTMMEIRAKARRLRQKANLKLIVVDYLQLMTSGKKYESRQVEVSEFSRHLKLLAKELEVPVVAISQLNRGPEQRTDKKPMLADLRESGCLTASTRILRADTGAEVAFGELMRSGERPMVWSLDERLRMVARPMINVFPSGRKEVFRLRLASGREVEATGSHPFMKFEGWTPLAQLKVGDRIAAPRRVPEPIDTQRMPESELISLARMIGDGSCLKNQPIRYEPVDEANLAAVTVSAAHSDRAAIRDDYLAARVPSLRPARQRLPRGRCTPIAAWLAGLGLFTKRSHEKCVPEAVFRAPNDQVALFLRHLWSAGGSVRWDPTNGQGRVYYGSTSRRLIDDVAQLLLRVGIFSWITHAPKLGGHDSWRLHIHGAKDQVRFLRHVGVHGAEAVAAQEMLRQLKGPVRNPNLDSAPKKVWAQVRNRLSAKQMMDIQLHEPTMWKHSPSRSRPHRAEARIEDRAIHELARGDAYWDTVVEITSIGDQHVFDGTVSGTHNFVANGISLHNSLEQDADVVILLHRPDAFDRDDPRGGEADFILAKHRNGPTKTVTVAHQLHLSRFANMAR

[6] = Luminescence Cell-Based Dose Retest to Confirm Inhibitors of Cancer Stem Cells. [Related pubchem assays (depositor defined):AID2717, AID2721]; assay type: functional; details: Homo sapiens
[7] = Trypanosoma cruzi growth suppression in host cells – NIH3T3 host cells, beta-gal luminescence, confirmation (AID 2044); assay type: functional, cell-based;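 further: intracellular parasites grown in NIH/3T3 mouse fibroblasts as host cells; luminescent beta-galactosidase reporter signal from transgenic T. cruzi replicating inside host cells; inhibitors lower the luminescence signal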
[8] = NIH3T3 cell viability loss – ATP luminescence, mouse fibroblasts, counter-screen, dose response (AID 2010); assay type: functional, cell-based;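 further: cells exposed to compound for about 90 hours before reading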

Chain of Cytochrome P450 2C19 (P33261 whole entry): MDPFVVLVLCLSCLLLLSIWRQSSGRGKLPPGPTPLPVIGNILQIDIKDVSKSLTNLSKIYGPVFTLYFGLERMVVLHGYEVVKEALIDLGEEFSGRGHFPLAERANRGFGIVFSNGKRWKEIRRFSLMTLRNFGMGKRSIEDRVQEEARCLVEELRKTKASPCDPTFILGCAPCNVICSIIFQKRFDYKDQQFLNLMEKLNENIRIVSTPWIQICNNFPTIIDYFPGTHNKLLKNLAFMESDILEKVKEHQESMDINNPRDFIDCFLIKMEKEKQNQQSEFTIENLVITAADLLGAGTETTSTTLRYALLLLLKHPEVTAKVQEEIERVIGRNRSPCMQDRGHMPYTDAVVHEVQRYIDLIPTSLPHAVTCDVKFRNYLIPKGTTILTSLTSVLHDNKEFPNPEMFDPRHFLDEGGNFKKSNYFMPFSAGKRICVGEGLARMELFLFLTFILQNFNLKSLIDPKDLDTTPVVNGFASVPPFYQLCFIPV

## Cc1ccc(NC(=O)C2CC(=O)n3c(nc4ccccc43)N2)cc1 (stereo not drawn)
Cytochrome P450 2C19
  AC50: 6.31 µM (inconclusive)
Cytochrome P450 3A4
  AC50: 17.8 µM (inconclusive)
Cytochrome P450 2C9
  AC50: 0.0355 µM (inconclusive)

## CCOc1ccc(CNc2ccc(CNc3nc[nH]n3)cc2)cc1
[1]
  CC50: 18 µM (active)

## CCOC(=O)c1ccc(S(=O)(=O)NNC(=O)COc2ccccc2C)cc1
Cells [2]
  EC50: > 350 µM (not active)
Cells [3]
  EC50: > 350 µM (not active)

## Cc1ccc(NC(=O)CN2C(=O)NC(C)(c3ccc(Cl)cc3)C2=O)c(Br)c1 (stereo not drawn)
[1]
  CC50: 30.1 µM (active)

## Cc1cc(SCC(=O)N/N=C/c2ccccc2C(=O)O)c(C)cc1Br
Cells [2]
  EC50: > 350 µM (not active)
Cells [3]
  EC50: > 350 µM (not active)

## COc1ccc(-c2nc3n(c2Br)CCC3)cc1
[1]
  CC50: 30.9 µM (active)

## O=C(CSc1ncccn1)Nc1ccc(S(=O)(=O)N2CCCCC2)cc1
Cytochrome P450 2C19
  AC50: 25.1 µM (inconclusive)
Cytochrome P450 3A4
  AC50: 25.1 µM (inconclusive)

## Cc1ncsc1C(=O)N1N=C2/C(=C/c3ccccc3)CCCC2C1c1ccccc1 (stereo not drawn)
Cytochrome P450 2C19
  AC50: 17.8 µM (inconclusive)
Cytochrome P450 1A2
  AC50: 17.8 µM (inconclusive)

## CC(C)C(NC(=O)C1CCCCC1)C(=O)NC1CCN(Cc2ccccc2)CC1 (stereo not drawn)
Cytochrome P450 2C19
  AC50: 3.55 µM (inconclusive)

## O=c1c(-c2cccs2)nc2cnc(Oc3ccccc3)nc2n1C1CC1
Cytochrome P450 2C19
  AC50: 1.58 µM (inconclusive)

## CNc1nc(N)c([N+](=O)[O-])c(Nc2cccc(F)c2)n1
INS1
  AC50: > 260 µM (inactive)

## C=CCn1c(SCC(=O)Nc2ncc(Cc3ccc(Br)cc3)s2)nnc1-c1ccncc1
Cytochrome P450 2C19
  AC50: 2.82 µM (inconclusive)

## COc1cc(C(=O)NCC(c2cccnc2)N2CCN(C)CC2)cc(OC)c1OC (stereo not drawn)
Cytochrome P450 2C19
  AC50: 39.8 µM (inconclusive)

## CC(=O)c1ccc(N(C(=O)c2csnn2)C(C(=O)NC(C)(C)C)c2cccs2)cc1 (stereo not drawn)
Cells [2]
  EC50: > 350 µM (not active)
Cells [3]
  EC50: > 350 µM (not active)

## Cc1ccc(/C=N/NC(=O)Cc2ccc(Cl)cc2)c(O)c1
Streptococcus
  EC50: 3.08 µM (active)
INS1
  AC50: 3.76 µM (active)
[4]
  EC50: 1.1 µM (active)

## O=C1c2[nH]nc(-c3ccccc3O)c2C(c2cccc(Cl)c2)N1Cc1ccco1 (stereo not drawn)
Streptokinase A
  EC50: 15.8 µM (active)
Protein RecA
  EC50: > 380 µM (inconclusive)
[5]
  AC50: 66.5 µM (active)

## COc1ccc(NC(=O)CSc2nc3cc[nH]cc-3n2)c(OC)c1
[1]
  CC50: 33.1 µM (active)

## CCOC(=O)c1c(C)[nH]c(C(=O)/C(C#N)=C/c2ccc(OC)c(OC)c2)c1C
[1]
  CC50: > 50 µM (active)

## CC(Oc1ccc2c3c(c(=O)oc2c1)CCCC3)C(=O)NCC(O)c1ccccc1 (stereo not drawn)
Cells [3]
  EC50: > 350 µM (not active)

## Cc1ccc(Nc2nc(Cl)c(C=O)s2)cc1Cl
[1]
  CC50: 19.2 µM (active)

## CCC(C)Sc1cccc(-c2nc3ccc(C)cn3c2NCc2ccccc2)c1 (stereo not drawn)
Streptococcus
  EC50: 10.3 µM (active)
INS1
  AC50: 7.39 µM (active)
[6]
  AC50: 2.75 µM (active)
Streptokinase A
  EC50: 4.26 µM (active)
[4]
  EC50: 3.25 µM (active)

## COc1ccc(-n2c(C)cc(C=O)c2C)cc1Cl
Cytochrome P450 2C19
  AC50: 3.98 µM (inconclusive)
Cytochrome P450 1A2
  AC50: 14.1 µM (inconclusive)
Cytochrome P450 2C9
  AC50: 17.8 µM (inconclusive)

## O=C(Cn1c(-c2ccccc2)c[n+]2ccsc12)c1ccc([N+](=O)[O-])cc1
INS1
  AC50: 11.6 µM (active)
[7]
  EC50: 0.549 µM (active)
[8]
  EC50: > 60 µM (not active)

## O=C(c1ccccc1)N1CCCC(c2ccc(Cl)cc2)=N1
[1]
  CC50: 42.4 µM (active)

## CCN1C=C(Cc2ccccc2C)C2=C(C1)C(c1ccccc1C)C(C#N)=C(N)O2 (stereo not drawn)
[1]
  CC50: 13.1 µM (active)

## O=C(CN1C(=O)NC2(CCCCCC2)C1=O)N1CCN(S(=O)(=O)c2ccc(Cl)cc2)CC1
Cytochrome P450 2C19
  AC50: 20 µM (inconclusive)
Cytochrome P450 2C9
  AC50: 17.8 µM (inconclusive)

## Cc1ccc(C)c(S(=O)(=O)Nc2ccc(O)c3ccccc23)c1
INS1
  AC50: 7.62 µM (active)
Protein RecA
  EC50: 0.0745 µM (active)
[5]
  AC50: 0.384 µM (active)

## Cc1cc(-n2nnc3ccccc32)nc2ccccc12
[1]
  CC50: 19.1 µM (active)

## C/C(=N\NC(=O)C(=O)Nc1cccc(Cl)c1)c1ccncc1
INS1
  AC50: 4.88 µM (active)

## COC(=O)Cn1c(C(=O)N(C)C)cc2c1C[C@H]1CN(C(=O)c3ccccc3)[C@@](Cc3ccc(OC)cc3)(C(=O)OC)[C@@H]21
Cytochrome P450 2C19
  AC50: 20 µM (inconclusive)
Cytochrome P450 2C9
  AC50: 12.6 µM (inconclusive)
